Molecules are shown by their SMILES. Bridge positions count the residues as written; N and C are the ends. Square brackets hold non-standard residues; d marks the D form. Peptide text beside a SMILES is read from it. * marks the point of attachment. ξ: configuration not given here. Phe(3-CF3) = N[C@@H](Cc1cccc(C(F)(F)F)c1)C(=O)O; Phe(4-COOH) = N[C@@H](Cc1ccc(C(=O)O)cc1)C(=O)O; Bip = N[C@@H](Cc1ccc(-c2ccccc2)cc1)C(=O)O; NH(CH2)14COOH = O=C(O)CCCCCCCCCCCCCCN*; Phe(3-Me) = Cc1cccc(C[C@H](N)C(=O)O)c1; NH(CH2)12COOH = O=C(O)CCCCCCCCCCCCN*; Val(3-OH) = CC(C)(O)[C@H](N)C(=O)O; 4Pal = N[C@@H](Cc1ccncc1)C(=O)O; Cha = N[C@@H](CC1CCCCC1)C(=O)O; Ile(3ξ) = CCC(C)[C@H](N)C(=O)O; Thr(3ξ) = CC(O)[C@H](N)C(=O)O; 12Ado = NCCCCCCCCCCCC(=O)O; dNle = CCCC[C@@H](N)C(=O)O; Carboxymethyl = O=C(O)C*; Nle = CCCC[C@H](N)C(=O)O; Orn = NCCC[C@H](N)C(=O)O; Aun = NCCCCCCCCCCC(=O)O; Dab = NCC[C@H](N)C(=O)O; Nva = CCC[C@H](N)C(=O)O; Dap = NC[C@H](N)C(=O)O; AEEA = NCCOCCOCC(=O)O

The assay deals with T1, PD-1/PD-L1 interaction (PE-labeled human PD-L1-Ig binding to Jurkat cell line over-expressing human PD-1) (Homo sapiens, UniProt Q15116).
T1 construct: expressed in transfected cells; host or cells: Jurkat
T1 sequence (Q15116 25-288): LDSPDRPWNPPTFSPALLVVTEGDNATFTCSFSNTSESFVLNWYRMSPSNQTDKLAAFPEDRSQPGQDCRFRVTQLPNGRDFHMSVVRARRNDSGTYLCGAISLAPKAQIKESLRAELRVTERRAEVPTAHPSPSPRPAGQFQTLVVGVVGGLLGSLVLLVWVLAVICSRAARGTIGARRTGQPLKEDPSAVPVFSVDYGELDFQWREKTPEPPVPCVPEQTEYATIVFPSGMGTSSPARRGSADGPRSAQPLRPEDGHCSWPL
Put plainly: Jurkat-PD-1 Cell Binding High-Content Screening Assay (CBA). In kind it is cell-based. The conditions noted are these: Jurkat cell line over-expressing human PD-1; PE-labeled PD-L1-Ig 20 nM final; read-out: Jurkat hPD1-PDL1 IC50. The method in brief:
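Jurkat cells stably over-expressing human PD-1 were seeded in DMEM with 10% fetal calf serum and pre-incubated with compound for 2 h at 37° C. PE-labeled human PD-L1-Ig was then added at 20 nM final for 1 hour, after which cells were fixed with paraformaldehyde, Hoechst-stained and imaged by high-content microscopy.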
The IC50 is the concentration needed to halve the response being measured. For the molecule `Cc1cccc(C[C@@H]2NC(=O)[C@H](CC(=O)O)NC(=O)[C@H](Cc3ccc(C(=O)O)cc3)NC(=O)[C@H](C(C)O)NC(=O)CSC[C@@H](C(=O)N[C@@H](CCN)C(=O)NCCOCCOCC(=O)NCCOCCOCC(=O)NCCCCCCCCCCC(=O)O)NC(=O)[C@H](CO)NC(=O)[C@H](C(C)(C)O)NC(=O)[C@H](CC3CCCCC3)NC(=O)[C@H](CCN)NC(=O)[C@@H](CC(C)C)NC(=O)[C@H](CCCN)NC(=O)[C@H](Cc3ccc(C(=O)O)cc3)NC(=O)[C@H](Cc3ccc(-c4ccccc4)cc3)NC(=O)[C@H](Cc3ccc(C(=O)O)cc3)NC2=O)c1` (stereo partly drawn) [Compound 3777] ({CH2CO}-[Thr(3ξ)][Phe(4-COOH)]D[Phe(3-Me)][Phe(4-COOH)][Bip][Phe(4-COOH)][Orn][dL][Dab][Cha][Val(3-OH)]SC[Dab][AEEA][AEEA][Aun]-OH; thioether N-14), the IC50 is 3.4 nM.
Turning to `Cc1cccc(C[C@@H]2NC(=O)[C@H](CC(=O)O)NC(=O)[C@H](Cc3ccc(OCC(=O)O)cc3)NC(=O)[C@H](CN)NC(=O)CSC[C@@H](C(=O)N[C@@H](CCN)C(=O)NCCOCCOCC(=O)NCCCCCCCCCCC(=O)O)NC(=O)[C@H](C(C)O)NC(=O)[C@H](Cc3ccc(O)cc3)NC(=O)[C@H](CC3CCCCC3)NC(=O)[C@H](CCN)NC(=O)[C@@H](CC(C)C)NC(=O)[C@H](CCCN)NC(=O)[C@H](C(C)C)NC(=O)[C@H](Cc3ccc(-c4ccccc4)cc3)NC(=O)[C@H](C(C)C)NC2=O)c1` (stereo partly drawn) [Compound 2585] ({CH2CO}-[Dap]Y(Carboxymethyl)D[Phe(3-Me)]V[Bip]V[Orn][dL][Dab][Cha]Y[Thr(3ξ)]C[Dab][AEEA][Aun]-OH; thioether N-14), the IC50 came out at 27 nM.
With `Cc1cccc(C[C@@H]2NC(=O)[C@H](CC(=O)O)NC(=O)[C@H](Cc3ccc(OCC(=O)O)cc3)NC(=O)[C@H](CN)NC(=O)CSC[C@@H](C(=O)N[C@@H](CCN)C(=O)NCCCCCCCCCCC(=O)O)NC(=O)[C@@H](CO)NC(=O)[C@H](C(C)C)NC(=O)[C@H](CC3CCCCC3)NC(=O)[C@H](CCN)NC(=O)[C@@H](CC(C)C)NC(=O)[C@H](CCCN)NC(=O)[C@H](Cc3ccc(OCC(=O)O)cc3)NC(=O)[C@H](Cc3ccc(-c4ccccc4)cc3)NC(=O)[C@H](C(C)C)NC2=O)c1` [Compound 2097] ({CH2CO}-[Dap]Y(Carboxymethyl)D[Phe(3-Me)]V[Bip]Y(Carboxymethyl)[Orn][dL][Dab][Cha]V[dS]C[Dab][Aun]-OH; thioether N-14) the figure was 38.8 nM.
With `CCCC[C@@H]1NC(=O)CSC[C@@H](C(=O)N[C@@H](CCN)C(=O)NCCCCCCCCCCCCCCC(=O)O)NC(=O)[C@H](CO)NC(=O)[C@H](C(C)(C)O)NC(=O)[C@H](CC2CCCCC2)NC(=O)[C@H](CCN)NC(=O)[C@@H](CC(C)C)NC(=O)[C@H](CCCN)NC(=O)[C@H](Cc2ccc(C(=O)O)cc2)NC(=O)[C@H](Cc2ccc(-c3ccccc3)cc2)NC(=O)[C@H](Cc2ccc(C(=O)O)cc2)NC(=O)[C@H](Cc2cccc(C(F)(F)F)c2)NC(=O)[C@H](CC(=O)O)NC(=O)[C@H](Cc2ccc(OCC(=O)O)cc2)NC1=O` [Compound 2913] ({CH2CO}-[Nle]Y(Carboxymethyl)D[Phe(3-CF3)][Phe(4-COOH)][Bip][Phe(4-COOH)][Orn][dL][Dab][Cha][Val(3-OH)]SC[Dab]-{NH(CH2)14COOH}; thioether N-14) the figure was 631 nM.
Regarding `CCC(C)[C@@H]1NC(=O)[C@H](Cc2ccc(-c3ccccc3)cc2)NC(=O)[C@H](C(C)C)NC(=O)[C@H](Cc2cccc(C)c2)NC(=O)[C@H](CC(=O)O)NC(=O)[C@H](Cc2ccc(OCC(=O)O)cc2)NC(=O)[C@H](C(C)O)NC(=O)CSC[C@@H](C(=O)N[C@@H](CCN)C(=O)NCCCCCCCCCCCCC(=O)O)NC(=O)[C@H](CO)NC(=O)[C@H](C(C)C)NC(=O)[C@H](CC2CCCCC2)NC(=O)[C@H](CCN)NC(=O)[C@@H](CC(C)C)NC(=O)[C@H](CCCN)NC1=O` (stereo partly drawn) [Compound 3093] ({CH2CO}-[Thr(3ξ)]Y(Carboxymethyl)D[Phe(3-Me)]V[Bip][Ile(3ξ)][Orn][dL][Dab][Cha]VSC[Dab]-{NH(CH2)12COOH}; thioether N-14), the IC50 came out at 50.1 nM.
With `CC(C)C[C@H]1NC(=O)[C@H](CCCN)NC(=O)[C@H](C(C)C)NC(=O)[C@H](Cc2ccc(-c3ccccc3)cc2)NC(=O)[C@H](C(C)C)NC(=O)[C@H](Cc2c[nH]c3ccccc23)NC(=O)[C@H](CC(=O)O)NC(=O)[C@H](Cc2ccc(OCC(=O)O)cc2)NC(=O)[C@H](CCCNC(=N)N)NC(=O)CSC[C@@H](C(=O)NCC(=O)NCCOCCOCC(=O)N[C@@H](CCCN)C(=O)NCCCCCCCCCCCC(=O)O)NC(=O)[C@H](CN)NC(=O)[C@H](C(C)C)NC(=O)[C@H](CC2CCCCC2)NC(=O)[C@H](CCN)NC1=O` [Compound 3172] ({CH2CO}-RY(Carboxymethyl)DWV[Bip]V[Orn][dL][Dab][Cha]V[Dap]CG[AEEA][Orn][12Ado]-OH; thioether N-14) the figure was 10.7 nM; with `CC[C@H](C)[C@@H]1NC(=O)[C@H](Cc2ccc(-c3ccccc3)cc2)NC(=O)[C@H](C(C)C)NC(=O)[C@H](Cc2c[nH]c3ccccc23)NC(=O)[C@H](CC(=O)O)NC(=O)[C@H](Cc2ccc(OCC(=O)O)cc2)NC(=O)[C@H](Cc2ccncc2)NC(=O)CSC[C@@H](C(=O)NCCOCCOCC(=O)NCCCCCCCCCCC(=O)O)NC(=O)[C@H]([C@@H](C)O)NC(=O)[C@H](C(C)C)NC(=O)[C@H](CC(C)C)NC(=O)[C@H](CCN)NC(=O)[C@@H](CC(C)C)NC(=O)[C@H](CCCN)NC1=O` [Compound 1150] ({CH2CO}-[4Pal]Y(Carboxymethyl)DWV[Bip]I[Orn][dL][Dab]LVTC[AEEA][Aun]-OH; thioether N-14), 33.5 nM.
On to `CCC[C@@H]1NC(=O)CSC[C@@H](C(=O)N[C@@H](CCN)C(=O)NCCCCCCCCCCC(=O)O)NC(=O)[C@H](CCC(=O)O)NC(=O)[C@H](C(C)(C)O)NC(=O)[C@H](CC2CCCCC2)NC(=O)[C@H](CCN)NC(=O)[C@@H](CC(C)C)NC(=O)[C@H](CCCN)NC(=O)[C@H](Cc2ccc(OCC(=O)O)cc2)NC(=O)[C@H](Cc2ccc(-c3ccccc3)cc2)NC(=O)[C@H](Cc2ccc(OCC(=O)O)cc2)NC(=O)[C@H](Cc2cccc(C)c2)NC(=O)[C@H](CC(=O)O)NC(=O)[C@H](Cc2ccc(OCC(=O)O)cc2)NC1=O` [Compound 3795] ({CH2CO}-[Nva]Y(Carboxymethyl)D[Phe(3-Me)]Y(Carboxymethyl)[Bip]Y(Carboxymethyl)[Orn][dL][Dab][Cha][Val(3-OH)]EC[Dab][Aun]-OH; thioether N-14), for which the half-maximal inhibitory concentration (IC50) came out at 5.8 nM.
In the case of `CC(C)C[C@H]1NC(=O)[C@H](CCCN)NC(=O)[C@H](Cc2ccc(O)cc2)NC(=O)[C@H](Cc2ccc(-c3ccccc3)cc2)NC(=O)[C@H](C(C)C)NC(=O)[C@H](Cc2c[nH]c3ccccc23)NC(=O)[C@H](CC(=O)O)NC(=O)[C@H](Cc2ccc(OCC(=O)O)cc2)NC(=O)[C@H](CCCNC(=N)N)NC(=O)CSC[C@@H](C(=O)N[C@@H](CCN)C(=O)NCCCCCCCCCCC(=O)O)NC(=O)[C@H](Cc2ccc(O)cc2)NC(=O)[C@H](C(C)C)NC(=O)[C@H](CC2CCCCC2)NC(=O)[C@H](CCN)NC1=O` [Compound 3343] ({CH2CO}-RY(Carboxymethyl)DWV[Bip]Y[Orn][dL][Dab][Cha]VYC[Dab][Aun]-OH; thioether N-14), the half-inhibitory concentration (IC50) was 66.2 nM.
Regarding `CC(C)C[C@H]1NC(=O)[C@H](CCCN)NC(=O)[C@H](C(C)C)NC(=O)[C@H](Cc2ccc(-c3ccccc3)cc2)NC(=O)[C@H](C(C)C)NC(=O)[C@H](Cc2c[nH]c3ccccc23)NC(=O)[C@H](CC(=O)O)NC(=O)[C@H](Cc2ccc(OCC(=O)O)cc2)NC(=O)[C@H](Cc2ccc(OCC(=O)O)cc2)NC(=O)CSC[C@@H](C(=O)NCCOCCOCC(=O)N[C@@H](CCCCN)C(=O)NCCCCCCCCCCC(=O)O)NC(=O)[C@H](CCCN)NC(=O)[C@H](C(C)C)NC(=O)[C@H](CC2CCCCC2)NC(=O)[C@H](CCN)NC1=O` [Compound 2599] ({CH2CO}-Y(Carboxymethyl)Y(Carboxymethyl)DWV[Bip]V[Orn][dL][Dab][Cha]V[Orn]C[AEEA]K[Aun]-OH; thioether N-14), the IC50 was determined as 8.2 nM.
As to `Cc1cccc(C[C@@H]2NC(=O)[C@H](CC(=O)O)NC(=O)[C@H](Cc3ccc(OCC(=O)O)cc3)NC(=O)[C@H](Cc3ccncc3)NC(=O)CSC[C@@H](C(=O)N[C@@H](CCN)C(=O)NCCCCCCCCCCC(=O)O)NC(=O)[C@H](CO)NC(=O)[C@H](C(C)(C)O)NC(=O)[C@H](CC3CCCCC3)NC(=O)[C@H](CCN)NC(=O)[C@@H](CC(C)C)NC(=O)[C@H](CCCN)NC(=O)[C@H](Cc3ccc(C(=O)O)cc3)NC(=O)[C@H](Cc3ccc(-c4ccccc4)cc3)NC(=O)[C@H](Cc3ccc(C(=O)O)cc3)NC2=O)c1` [Compound 3716] ({CH2CO}-[4Pal]Y(Carboxymethyl)D[Phe(3-Me)][Phe(4-COOH)][Bip][Phe(4-COOH)][Orn][dL][Dab][Cha][Val(3-OH)]SC[Dab][Aun]-OH; thioether N-14), the IC50 was 165 nM.
With `CCCC[C@H]1NC(=O)[C@H](CCCN)NC(=O)[C@H](C(C)C)NC(=O)[C@H](Cc2ccc(-c3ccccc3)cc2)NC(=O)[C@H](C(C)C)NC(=O)[C@H](Cc2cccc(C)c2)NC(=O)[C@H](CC(=O)O)NC(=O)[C@H](Cc2ccc(OCC(=O)O)cc2)NC(=O)[C@H](CN)NC(=O)CSC[C@@H](C(=O)NCCOCCOCC(=O)N[C@@H](CCN)C(=O)NCCCCCCCCCCC(=O)O)NC(=O)[C@H](CN)NC(=O)[C@H](C(C)C)NC(=O)[C@H](CC2CCCCC2)NC(=O)[C@H](CCN)NC1=O` [Compound 2674] ({CH2CO}-[Dap]Y(Carboxymethyl)D[Phe(3-Me)]V[Bip]V[Orn][dNle][Dab][Cha]V[Dap]C[AEEA][Dab][Aun]-OH; thioether N-14) the figure was 12 nM.

These data come from US20260022142A1, “MACROCYCLIC IMMUNOMODULATORS” (Bristol-Myers Squibb Company, priority 2022, published 2026).
